No end group written: not given here.
Columns and labels:
[1] = test system: adhesion of THP-1 cells to CD40L; assay: Static adhesion assay: activated THP-1 cells on immobilized CD40L; assay type: cell-based; conditions: peptides 50 μM
Procedure: (§1) 96-well plates (Nunc) were coated with sCD40L and incubated with CHO cells expressing constitutively activated Mac-1, as described previously, or THP-1 cells. Cells were allowed to adhere for 20 to 50 minutes. Blocking antibodies (10 μg/ml) were pre-incubating with the cells. As indicated, assays were carried out in the presence of peptides (50 μM). Permeabilization buffer (6 mg/ml phosphatase substrate (Sigma), 1% Triton X-100, 50 mM sodium acetate, pH 5.5) was added to quantify adhering cells by colorimetric reaction. Alternatively, adhering cells were counted. Murine EC were isolated as previously described. Mac-1 expressing CHO were loaded with CFDA-SE (Invitrogen), allowed to adhere for 45 minutes, and quantified under the fluorescence microscope. […] Adhering and rolling cells were quantified in a parallel flow chamber system (Glycotech) at the indicated shear rates and in the presence of the indicated peptides (1 μM) or antibodies (10 μg/ml). […]
96-well plates (Nunc) were coated with sCD40L (10 μg/ml) in PBS overnight at 4° C. […] After removal of unbound cells by washing with PBS, permeabilization buffer (6 mg/ml phosphatase substrate (Sigma), 1% Triton X-100, 50 mM sodium acetate, pH 5.5) was added for 1 hour at 37° C. and adhering cells were quantified by colorimetric reaction at 405 nm. Alternatively, adhering cells were counted under the microscope (Zeiss). […]

[2] = biological target: T1, CD40L (Homo sapiens, UniProt P29965); assay: Solid phase assay: direct binding of biotinylated CD40L to immobilized peptides
T1 construct: inserting the coding DNA for amino acids E^108 to L^261 in pHOG-21; c-myc (N); His (N); trimerization domain (N); made in house; host or cells: E. coli TG-1
T1 sequence (P29965 108-261): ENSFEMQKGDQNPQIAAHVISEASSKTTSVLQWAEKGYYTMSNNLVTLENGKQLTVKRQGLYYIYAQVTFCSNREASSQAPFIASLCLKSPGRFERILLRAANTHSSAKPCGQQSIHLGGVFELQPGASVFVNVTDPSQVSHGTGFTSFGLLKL
Procedure: (§2) Solid phase binding assay. Recombinant CD40L was incubated with immobilized Mac-1 I-domain in the presence or absence of blocking peptides. Binding of sCD40L was detected by addition of anti-cmyc-HRP (Invitrogen), TMB-substrate (Pierce), and colorimetric reaction. Alternatively, CD40L (Provitro) was immobilized, and binding of the recombinant Mac-1 I-domain was quantified by addition of anti-His-Biotin (Qiagen), and HRP-coupled streptavidin (Pierce). For the binding to immobilized peptides, CD40L was biotinylated with the Micro Biotinylation Kit (Sigma). A mixture of equal molarities of all peptides served as the positive control in this assay.
The recombinant Mac-1 I-domain was immobilized in 96-well plates (Nunc) in PBS at 4° C. overnight. […] Effect of the peptides M1-M8 was assessed by incubating CD40L (10 μg/ml) in the presence of peptides (50 μM). […] Binding was quantified by addition of TMB-substrate (Pierce), colorimetric reaction at 450 nm. […] Binding of the recombinant Mac-1 I-domain was quantified by addition of anti-His-Biotin monoclonal antibody (Qiagen), HRP-coupled streptavidin (Pierce) and colorimetric reaction at 450 nm. […] For quantification of the binding of CD40L to peptides, peptides were immobilized in 96-well plates overnight at 4° C. in 50 mM sodium carbonate, pH 10.6. […] Absorbance on BSA-coated wells served as negative control and was subtracted.

[3] = test system: human granulocytes and monocytes; assay: Flow cytometry: binding of CD40L to human granulocytes and monocytes; assay type: cell-based
Procedure: (§3) Flow cytometric analysis, platelet activation assays, and quantification of leukocyte-platelet aggregates, were performed as previously described (Zirlik et al., 2007). Binding of cM7 to CD40L-expressing murine fibroblasts was determined by quantification of FITC-coupled cM7. Binding of CD40L to Mac-1 expressing CHO-cells or human leukocytes was performed by incubation with CD40L (10 μg/ml) and subsequent detection with anti-PentaHis antibody (Qiagen).
(§4) Flow cytometric analyses, as well as platelet activation assays and quantification of leukocyte-platelet aggregates were performed as previously described (Quezada et al., Ann. Rev. Immunol. (2004), pp 307-328). Briefly, murine blood samples were taken by intracardiac puncture. Red cells were lyzed in 155 mM NH4Cl, 5.7 mM K2HPO4, 0.1 mM EDTA, pH 7.3. […] Antibodies for epitope specific fluorescence-activated cell sorting (FACS Calibur, BD) included anti-CD11b, anti-CD115, anti-Gr-1, anti-CD4, anti-CD8, anti-CD20, anti-CD41, anti-CD62P, anti-CD54, anti-CD102, and anti-CD106 (all from Ebioscience). Binding of cM7 to CD40L- or mock-transfected murine fibroblasts was determined by incubation of FITC-cM7 at the indicated concentrations with cells for 30 min at 37° C. and subsequent quantification of the fluorescence in the FL-1 channel. […]

[4] = test system: Mac-1 expressing CHO cells; assay: Flow cytometry: binding of CD40L to Mac-1 expressing CHO cells; assay type: cell-based; conditions: peptides 50 μM
Procedure: as §3, §4

[5] = biological target: T2, CD40L binding to Mac-1 I-domain (Homo sapiens, UniProt P29965); assay: Solid phase binding assay: blocking of CD40L binding to immobilized Mac-1 I-domain by peptides; conditions: for blocking of CD40L / Mac-1 I-domain binding: peptides 50 μM
T2 construct: inserting the coding DNA for amino acids E^108 to L^261 in pHOG-21; His (N); trimerization domain (N); made in house
T2 sequence (P29965 108-261): T1 sequence (P29965 108-261)
Procedure: as §2
The recombinant Mac-1 I-domain was immobilized in 96-well plates (Nunc) in PBS at 4° C. overnight. After blocking in 2% BSA/PBS and subsequent washing with PBS, recombinant CD40L was added to the wells in the indicated concentrations and incubated for 2 hours at 37° C. Effect of the peptides M1-M8 was assessed by incubating CD40L (10 μg/ml) in the presence of peptides (50 μM). After removing of unbound CD40L by washing with 0.1% Tween-20/PBS, anti-c-myc-HRP (Invitrogen) was added and incubated for 2 hours at room temperature. Binding was quantified by addition of TMB-substrate (Pierce), colorimetric reaction at 450 nm. Alternatively, CD40L without a His-tag (Provitro) was immobilized and blocked as described above. Binding of the recombinant Mac-1 I-domain was quantified by addition of anti-His-Biotin monoclonal antibody (Qiagen), HRP-coupled streptavidin (Pierce) and colorimetric reaction at 450 nm. For the specific binding of the Mac-1 I-domain BSA-coated wells were subtracted from the CD40L-coated. Kd was estimated using a one-site binding hyperbola nonlinear regression model with the Software Prism (Graphpad). For quantification of the binding of CD40L to peptides, peptides were immobilized in 96-well plates overnight at 4° C. in 50 mM sodium carbonate, pH 10.6. CD40L was biotinylated using the Micro-Biotinylation-Kit (Sigma) following the manufacturer's instructions and detected by HRP-coupled streptavidin (Pierce) and colorimetric reaction. A mixture of equal molarities of all peptides served as positive control. Absorbance on BSA-coated wells served as negative control and was subtracted.

[6] = test system: adhesion of Mac-1-CHO cells to GPIbα; assay: Dynamic flow chamber assay: Mac-1-CHO cells on GPIbα; assay type: cell-based; conditions: peptides 1 μM
Procedure: as §1
For dynamic adhesion assays, 35 mm dishes were coated overnight at 4° C. with 1% BSA, CD40L, GPIbα (Abnova), ICAM-1 (R&D systems) or fibrinogen (Sigma), at a concentration of 10 μg/ml, and 30 μg/ml, respectively. […] Cells were quantified under the microscope (Olympus). […] Adhesion and rolling of peritoneal exudate cells on isolated murine endothelial cells was quantified as described above. […]

Sequence	blocking of adhesion of THP-1 cells to CD40L [1]	direct binding of CD40L to immobilized peptide [2]	blocking of binding of CD40L to human granulocytes and monocytes [3]	blocking of binding of CD40L to Mac-1-CHO cells [4]	IC50 ([5]; concentration dependent) [µM]	blocking of CD40L / Mac-1 I-domain binding [5]	effect on adhesion of Mac-1-CHO cells to GPIbα [6]
EQLKKSKTL [Peptide M7]	most efficiently blocked adhesion of THP-1 cells to CD40L	mediated direct binding to CD40L	the only peptide blocking binding of CD40L to human granulocytes and monocytes	neutralized binding of CD40L	~4	emerged as potential candidate inhibitors	
PITQLLGRTHTATGIRK (therapeutically active peptide) [Peptide M2, GPIbα-specific control peptide]						not affecting CD40L-Mac-1 binding	blocked the interaction between Mac-1 and GPIbα

Source: patent publication US10994010B2, “Selective targeting of the CD40L/Mac-1 interaction by small peptide inhibitors and its use for the treatment of inflammation and atherogenesis” (Universitaetsklinikum Freiburg, priority 2010, dated 2021)
